Results from patent US4150146A, “Process for the preparation of unsymmetrically 1,3-disubstituted nitroso ureas” (priority 1976, dated 1979).

What was measured:
[1] = test system: autochthonic DMBA-induced mammary carcinoma; test: Animal test against autochthonic DMBA-induced mammary carcinoma; assay type: in vivo, rat; conditions: in words; for activity against autochthonic DMBA-induced mammary carcinoma relative to Adriamycin / BCNU: comparison with Adriamycin (and BCNU)
[2] = test system: s.c. Walker carcinosarcoma; test: Chemotherapeutic activity against s.c. Walker carcinosarcoma (tumor weight inhibition); assay type: in vivo, rat (Sprague Dawley); conditions: for s.c. Walker T.W.I.% (tumor weight inhibition): 50% of the acute LD50 i.p., treatment on day 4 after transplantation, T.W.I. on day 8, 10 Sprague Dawley rats per group
Source text: (§1) The chemotherapeutic activity of Compounds 1 to 8 against rat leukaemia L 5222 and s.c. Walker carcinosarcoma is shown in the accompanying Table II, together with that of still another BCNU analog and of BCNU itself.
(§2) The chemotherapeutic activity of Compounds 1 to 8,
(§3) another analog of BCNU, and BCNU against rat leukaemia
(§4) L 5222 and s.c. Walker carcinosarcoma
(§5) ^1 50% of the acute LD50 were given i.p.
^4 Treatment on day 4 after transplantation. Each group consisted of
10 Sprague Dawley vats.
^5 T.W.I. corresponds to tumor weight inhibition in % on day 8,?

[3] = Solubility in water (or tissue fluids); assay type: physicochemical; conditions: comparison with BCNU, in words
Delayed toxicity = assay type: in vivo; conditions: contrary to BCNU; preliminary
rat leukaemia L 5222 = test: Chemotherapeutic activity against rat leukaemia L 5222 (cures); assay type: in vivo; conditions: for L 5222 cures %: 50% of the acute LD50 i.p., treatment on day 6 after transplantation of 5 × 10^6 cells, rats surviving 60 days after treatment considered cured
Source text: as §1, §2, §3, §4, §5
^2 Treatment on day 6 after transplantation of 5 × 10^6
^3 Rats surviving 60 days after treatment were considered cured.

Stability = assay type: physicochemical; conditions: liquid compounds

Row | SMILES | L 5222 cures % (rat leukaemia L 5222) [%] | s.c. Walker T.W.I.% (tumor weight inhibition) [2] [%] | other results
1 | NC(=O)CNC(=O)N(CCCl)N=O [Compound 10, 2-(3-(2-chloroethyl))-3-nitrosoureido acetamide] | – | – | activity against autochthonic DMBA-induced mammary carcinoma relative to Adriamycin / BCNU [1]: better activity than "Adriamycin" or BCNU; activity against s.c. Walker carcinosarcoma relative to BCNU ([2]; preliminary animal test, comparison with BCNU): same activity against s.c. Walker carcinosarcoma as BCNU; solubility in water relative to BCNU [3]: better solubility in water; delayed toxicity (Delayed toxicity): little delayed toxicity
2 | O=NN(CCCl)C(=O)NCCCCCNC(=O)N(CCCl)N=O [Compound 4, 1,1'-pentamethylenebis-CNU] | 30 | 68 | –
3 | O=NN(CCCl)C(=O)NCCCCCCNC(=O)N(CCCl)N=O [Compound 5, 1,1'-hexamethylenebis-CNU] | 50 | 70 | –
4 | O=NN(CCCl)C(=O)NCCCCO [Compound 8, 1-(4-hydroxybutyl)-CNU] | 5 | 4 | stability (for elementary analysis) (Stability): not stable enough for elementary analysis
5 | O=NN(CCCl)C(=O)NCCNC(=O)N(CCCl)N=O [Compound 1, 1,1'-ethylenebis-CNU] | 60 | 75 | –
6 | O=NN(CCCl)C(=O)NCCO [Compound 6, 1-(2-hydroxyethyl)-3-(2-chloroethyl)-3-nitroso urea] | 90 | 85 | chemotherapeutic activity against rat leukaemia L 5222 and s.c. Walker carcinosarcoma (in words) (rat leukaemia L 5222; summary of Table II, both tumor models): outstanding activity
7 | O=NN(CCCl)C(=O)NCCCl [BCNU, 1,3-bis-(2-chloroethyl)-1-nitroso urea, reference compound] | 70 | 83 | –
8 | CS(=O)(=O)OCCNC(=O)N(CCCl)N=O [Compound 9] | – | – | activity against rat autochthonic DMBA-induced mammary carcinoma ([1]; animal test): excellent activity; activity against autochthonic DMBA-induced mammary carcinoma relative to Adriamycin / BCNU [1]: significantly exceeding that of "Adriamycin"
9 | Cc1ccc(NC(=O)N(CCCl)N=O)cc1NC(=O)N(CCCl)N=O [1,1'-(4-methyl-m-phenylene)bis-CNU] | 0 | 35 | –
10 | O=NN(CCCl)C(=O)NCCCO [Compound 7, 1-(3-hydroxypropyl)-CNU] | 10 | 0 | stability (for elementary analysis) (Stability): not stable enough for elementary analysis
11 | O=NN(CCCl)C(=O)NCCCNC(=O)N(CCCl)N=O [Compound 2, 1,1'-propylenebis-CNU] | 60 | 72 | –
12 | O=NN(CCCl)C(=O)NCCCCNC(=O)N(CCCl)N=O [Compound 3, 1,1'-tetramethylenebis-CNU] | 75 | 77 | –
